Common to all, as to format: cell-based
The target of assay [1] is T1, Human VR1 Receptor (Homo sapiens, UniProt Q8NER1). As to the kind of experiment: Inhibition of capsaicin-induced activation of VR1. The conditions noted are these: mean ± SEM, n = number of experiments. From the text: (§1) Methods for assaying compounds capable of inhibiting VR1 are well known to those skilled in the art, for example, those methods disclosed in U.S. Pat. No. 6,239,267 to Duckworth et al.; U.S. Pat. No. 6,406,908 to McIntyre et al.; or U.S. Pat. No. 6,335,180 to Julius et al.
T1 sequence (Q8NER1 whole entry): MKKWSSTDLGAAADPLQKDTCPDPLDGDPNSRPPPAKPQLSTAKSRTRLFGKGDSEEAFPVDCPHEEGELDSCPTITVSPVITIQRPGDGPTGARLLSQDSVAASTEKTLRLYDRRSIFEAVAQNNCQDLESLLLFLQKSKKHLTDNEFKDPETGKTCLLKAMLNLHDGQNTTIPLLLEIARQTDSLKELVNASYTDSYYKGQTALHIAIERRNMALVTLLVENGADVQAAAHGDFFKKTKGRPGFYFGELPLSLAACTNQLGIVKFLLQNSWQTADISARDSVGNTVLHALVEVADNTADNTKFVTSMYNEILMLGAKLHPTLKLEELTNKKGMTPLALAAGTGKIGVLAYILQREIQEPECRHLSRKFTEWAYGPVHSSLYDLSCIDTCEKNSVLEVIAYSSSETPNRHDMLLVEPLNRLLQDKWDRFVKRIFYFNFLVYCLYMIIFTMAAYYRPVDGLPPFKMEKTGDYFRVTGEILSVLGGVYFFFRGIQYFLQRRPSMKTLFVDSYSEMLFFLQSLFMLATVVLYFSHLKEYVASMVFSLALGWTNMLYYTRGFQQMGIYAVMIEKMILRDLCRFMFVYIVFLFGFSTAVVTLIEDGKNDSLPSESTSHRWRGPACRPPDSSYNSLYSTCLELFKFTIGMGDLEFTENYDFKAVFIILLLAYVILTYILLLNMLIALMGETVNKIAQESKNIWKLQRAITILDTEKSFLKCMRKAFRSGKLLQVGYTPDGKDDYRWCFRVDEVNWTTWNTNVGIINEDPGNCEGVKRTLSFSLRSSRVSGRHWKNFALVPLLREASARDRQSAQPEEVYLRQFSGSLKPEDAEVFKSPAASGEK

Assay [2] concerns the target T1, Human VR1 Receptor. As to the kind of experiment: Inhibition of pH-induced activation of VR1. As to conditions: mean ± SEM, n = number of experiments.
Text: as §1

Another assay deals with T2, rat mGluR5 (Rattus norvegicus, UniProt P31424).
T2 construct: expressed in transfected cells; host or cells: CHO cells (CHO-rat mGluR5, kept under Geneticin selection)
T2 sequence (P31424 21-1203): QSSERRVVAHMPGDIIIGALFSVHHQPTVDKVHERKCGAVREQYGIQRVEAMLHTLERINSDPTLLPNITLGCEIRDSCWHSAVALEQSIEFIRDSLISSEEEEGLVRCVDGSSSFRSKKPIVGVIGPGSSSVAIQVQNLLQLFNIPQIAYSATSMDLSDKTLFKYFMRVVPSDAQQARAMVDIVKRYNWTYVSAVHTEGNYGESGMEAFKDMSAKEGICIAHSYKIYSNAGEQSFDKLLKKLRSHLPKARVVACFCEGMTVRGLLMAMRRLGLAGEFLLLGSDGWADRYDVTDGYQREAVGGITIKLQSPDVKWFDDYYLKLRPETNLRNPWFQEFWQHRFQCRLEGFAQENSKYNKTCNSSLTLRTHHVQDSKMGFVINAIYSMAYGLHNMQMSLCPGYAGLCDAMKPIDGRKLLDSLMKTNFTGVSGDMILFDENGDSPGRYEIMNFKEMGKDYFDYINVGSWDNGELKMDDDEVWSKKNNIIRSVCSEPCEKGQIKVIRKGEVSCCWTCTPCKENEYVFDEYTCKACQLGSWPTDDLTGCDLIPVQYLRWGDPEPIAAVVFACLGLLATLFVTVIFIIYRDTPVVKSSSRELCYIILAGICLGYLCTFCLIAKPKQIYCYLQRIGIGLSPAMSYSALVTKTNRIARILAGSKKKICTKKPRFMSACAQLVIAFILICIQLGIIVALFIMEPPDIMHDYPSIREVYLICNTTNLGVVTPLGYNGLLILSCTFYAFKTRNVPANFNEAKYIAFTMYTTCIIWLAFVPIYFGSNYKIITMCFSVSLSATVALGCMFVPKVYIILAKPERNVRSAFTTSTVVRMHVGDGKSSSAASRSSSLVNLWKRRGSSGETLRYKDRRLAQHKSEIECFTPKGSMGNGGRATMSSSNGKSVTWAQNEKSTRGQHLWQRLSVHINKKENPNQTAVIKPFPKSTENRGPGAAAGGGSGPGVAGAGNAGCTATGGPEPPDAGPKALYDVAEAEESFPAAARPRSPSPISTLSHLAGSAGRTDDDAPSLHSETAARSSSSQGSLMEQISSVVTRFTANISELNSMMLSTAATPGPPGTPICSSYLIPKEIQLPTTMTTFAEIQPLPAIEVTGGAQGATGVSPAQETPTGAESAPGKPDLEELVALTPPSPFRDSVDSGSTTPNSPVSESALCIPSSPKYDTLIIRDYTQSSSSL
As to the kind of experiment: CHO assay: calcium mobilization flux (FLIPR) in CHO-rat mGluR5 cells in the presence of glutamate. As to conditions: at a concentration of 10 μM, 10 uM glutamate. On the procedure:
40,000 CHO-rat mGluR5 cells/well were plated into 96 well plate (Costar 3409, Black, clear bottom, 96 well, tissue culture treated) for an overnight incubation in Dulbelcco's Modified Eagle's Medium (DMEM, pH 7.4) and supplemented with glutamine, 10% FBS, 1% Pen/Strep, and 500 ug/ml Geneticin. CHO-rat mGluR5 cells were washed and treated with Optimem medium and incubated for 1–4 hours prior to loading cells. […] The plates containing the CHO-rat mGluR5 cells were then transferred to Fluorometric Imaging Plate Reader (FLIPR) (commercially available from Molecular Devices Corporation of Sunnyvale, Calif.) for the assessment of calcium mobilization flux in the presence of glutamate and in the presence or absence of test compounds. After monitoring fluorescence for 15 seconds to establish a base line, DMSO solutions containing various concentrations of the test compound diluted in loading buffer (0.05 mL of 4× dilutions for the competition curves) were added to the cell plate and fluorescence was monitored for 2 minutes. […] Plate fluorescence is then monitored for an additional 60 seconds after agonist addition. […] In each experiment, fluorescence is monitored as a function of time and the data analyzed using Microsoft Excel and GraphPad Prism. […] In each experiment each data point was determined two times.
On the technique in general: Calcium flux is commonly read through the fluorescence of an indicator in the cells.

Consider two compounds from patent US7071335B2, “2-pyridinyl-1-piperazine therapeutic agents useful for treating pain” (Euro-Celtique S.A., priority 2002, dated 2006).

Usually IC50 stands for the concentration that gives 50% inhibition.

`CC(C)(C)c1ccc(NC(=O)N2CCN(c3ncccc3F)CC2)cc1`: the results for the IC50 against Human VR1 Receptor [1] and on Human VR1 Receptor [2] were 1.3 ± 1.2 nM and 5.4 ± 2.5 nM, respectively. With `Cc1cccc(CCNC(=O)N2CCN(c3ncccc3Cl)C[C@H]2C)c1C`, on rat mGluR5, the “inhibition of mGluR5” value is on record as “inhibits”.
